Laboratory results published in patent publication US20140322198A1, “COMPOSITION COMPRISING VICENIN-2 HAVING A BENEFICIAL EFFECT ON NEUROLOGICAL AND/OR COGNITIVE FUNCTION” (priority 2011, published 2014).
≈ marks a conversion by molar mass, not a printed value. Entries after “also recorded” stand apart in the source; their conditions may differ.

Assays:
[1] = test system: murine frontal cortex networks; test: Pattern recognition and classification of MEA activity patterns against NeuroProof database (105 substances); format: cell-based, mice; settings: for % of data records classified as reference substance: AUC-V, all
Procedure: Afterwards, a further analysis was carried out through a pattern-recognition analysis and through comparison with NeuroProof database to determine relevant mechanisms involved in the frontal cortex activity pattern induced changes by each substance.
To clarify the mode of action of the test substance on the activity of cortical networks these experiments were further analyzed using methods of pattern recognition. For each stable concentration activity phase the 200 spike train parameters were normalized by the native reference activity.
Using a feature selection algorithm, on the basis of the reference substances, the 40 most descriptive parameters for all 200 spike train parameters were selected. The rankings of activity features using various score methods based on classification experiments and comparing their total correct predictions were calculated. In this manner, the best results for a MDL (minimal description length) modified algorithm were obtained. A training data set with these 40 spike train parameters was established in the form of data records from the reference substances. An artificial neuronal network, multi layer feed forward network and back propagation algorithm without hidden units was then trained. The respective data records of the four substances were all subsequently classified. A classification against 105 substances in the database was carried out.

[2] = test system: murine frontal cortex networks; test: Acute effects on cortical network activity (spike rate), MEA-neurochip multichannel recording; format: cell-based, mice
Procedure: Purpose of this example was the evaluation of the acute neuroactive effects of vicenin 2 (named AUC-V) and of Perilla extract (named AUC-P) comprising and standardized on Vicenin 2 on the neuronal activity of murine frontal cortex networks in vitro by means of electrophysiological multi-channel recordings. In this system, cells or tissues are grown directly on the chip surface and communicate via chemical and electrical signals. The MEA-neurochip allows the non-invasive, long-term, multisite recording of electrical signal patterns of primary neuronal networks. Said MEA-neurochip technology enables the characterization of network activity pattern on the single-cell action-potential level and on the level of complex neuronal networks as the basic functional units. This can also be used as a test system for investigating neuro-physiological properties of compounds. Despite the complexity, the neurophysiological action profiles of neuroactive compounds are sensitive and selective as well as robust and stable, allowing a precise pharmacological “fingerprinting” and the creation of a database of information on well-characterized neuroactive substances. The multiparametric description of the activity pattern changes caused by treatment of a brain-region-specific neuronal network is a sophisticated approach to quantify the complex effects of neuroactive agents, of unknown compounds, and of complex mixtures such as biological extracts. Correlation with well-known neuroactive substances and their specific pattern, available in specific databased, provides novel insights into the possible pharmacological and physiological mechanisms of modes of action of herbal preparations or isolated substances. […] The recorded electrical activity patterns were characterized by 200 features and their changes were statistically evaluated. […] Cultures were incubated at 37° C. in a 10% CO2 atmosphere until ready for use, which usually is four weeks to three months after seeding. […]

[3] = test system: TNFα; test: Ex vivo TNFα secretion in LPS-stimulated human whole blood; format: cell-based; settings: ex vivo study, statement in words
Procedure: TNF alpha secretion [pg/ml] after co-incubation with LPS and Perilla extract of different concentration (1 μg/ml, 2.5 μg/ml and 50 μg/ml) against 450 μg/ml a benchmark blend, containing e.g. Boswellia extract, Omega 3 fatty acids, ALA and Curcumin. This study investigated the efficacy of Perilla extract comprising vicenin 2 to contribute to reduce TNFα levels. The study was designed as an ex vivo study, where human whole blood samples were treated with LPS, a bacterial blend, to stimulate inflammation which leads to an increase of the cytokine TNFα. Furthermore, the effect to reduce TNFα by Perilla extract was measured in comparison to a negative and positive control.

In the case of `O=c1cc(-c2ccc(O)cc2)oc2c([C@@H]3O[C@H](CO)[C@@H](O)[C@H](O)[C@H]3O)c(O)c([C@@H]3O[C@H](CO)[C@@H](O)[C@H](O)[C@H]3O)c(O)c12` [vicenin 2, 5,7-Dihydroxy-2-(4-hydroxyphenyl)-6,8-bis[(2S,3R,4R,5S,6R)-3,4,5-trihydroxy-6 (hydroxymethyl)oxan-2-yl]chromen-4-one], the “% of data records classified as reference substance” value (from here on “% of data records classified”) ([1]; classified as Amisulpride) is reported as 15%, the “% of data records classified” value ([1]; classified as Atropinemethylbromide) is reported as 12% and the “% of data records classified” value ([1]; classified as DPDPE) is reported as 11%. For the same compound, the “% of data records classified” value ([1]; classified as Enkephalin) was 14%, the “% of data records classified” value ([1]; classified as Eserine) was 15% and the “% of data records classified” value ([1]; classified as Indatraline) was 12%. For the same compound, the “% of data records classified” value ([1]; classified as Modafinil) was 12%, the “% of data records classified” value ([1]; classified as Nicotine) was 12% and the “% of data records classified” value ([1]; classified as Olanzapine) was 17%. The “% of data records classified” value ([1]; classified as Sodium dodecyl sulfate) was 12%, the “activity identified by the classification” value ([1]; classification against reference substances (Amisulpride, Muscimol, Enkephalin)) was “sedative and anxiolytic activity; also recorded: enkephalin-like activity” and the “electrophysiological multi-channel recording pattern compared with positive controls” value ([1]; similarity to reference substances, in words) was “comparable with the pattern of the positive control eserine and nicotine; also recorded: comparable with the pattern of the positive control of carboxolone; also recorded: effects similar to amisulpride”. The EC50 ([2]; Mus musculus, spike rate, frontal cortex networks in vitro, 9 accumulating concentrations, read-out: EC50 of decrease of the cortical network activity) was 0.002 ng/mL (≈ 0.00336 nM), the “effects on burst structure and oscillatory behaviour of the network” value ([2]; cortical network activity pattern) was “no affects on the burst structure, however on the oscillatory behaviour of the network” and the “maximum decrease to % of the native activity” value ([2]; cortical network activity, native activity = 100%) was 80%. The anti-inflammatory effects [3] was “anti-inflammatory effects”.
